Test results from patent US9260454B2, “Isothiazolopyridine-2-carboxamides and their use as pharmaceuticals” (Sanofi, priority 2011, dated 2016).

Assays:
recombinant human TGM2 = recombinant human TGM2 (Homo sapiens (Human), UniProt P21980); assay: Assay for quantification of TGM2 transglutaminase inhibitory activity (fluorescence, H-Abz-APE(CAD-DNP)QEA-OH substrate); assay type: biochemical; conditions: recombinant human TGM2 25 μg/ml; substrate 50 μM, glycine methyl ester 5 mM; 15 min preincubation at room temperature; pH 7.5; read-out: IC50 values for inhibition of TGM2
Description: a) Assay Method for the Quantification of TGM2 Transglutaminase Inhibitory Activity
The activity of the compounds for inhibition of TGM2 was determined with recombinant human TGM2 (Zedira GmbH, Darmstadt, Germany, Product Nr. T002) and the peptidic compound H-Abz-APE(CAD-DNP)QEA-OH as substrate (Zedira GmbH, Darmstadt, Germany, Product Nr. A102; CAD-DNP is N^ω-2,4-dinitrophenyl-cadaverine, i.e. the carboxylic acid group in the side chain of the respective glutamyl moiety is amidated with the primary amino group of N-(2,4-dinitrophenyl)pentane-1,5-diamine; cf. also K. Oertel et al., Anal. Biochem. 2007, 367: 152-158). For this purpose, 2 μl of a solution of different concentrations of the test compound in dimethyl sulfoxide was added to 28 μl of buffer (50 mM TRIS, 100 mM NaCl, 10 mM CaCl2, pH 7.5) and 10 μl of a TGM2 solution to give a TMG2 test concentration of 25 μg/ml, and the mixture incubated for 15 minutes at room temperature in a 96 half-well microtiter plate. The enzyme reaction was started by the addition of 10 μl of substrate solution containing H-Abz-APE(CAD-DNP)QEA-OH and glycine methyl ester hydrochloride in buffer to give test concentrations of H-Abz-APE(CAD-DNP)QEA-OH of 50 μM and of glycine methyl ester hydrochloride of 5 mM. The time course of the reaction was monitored with excitation at 318 nm and measurement at emission wavelength 418 nm in a microtiter plate reader (SpectraMax M5, Molecular Devices) over 15 minutes. Rates were calculated from the linear part of the curve (generally between 5 and 10 minutes). IC50 values were calculated from the means (duplicates) of a dilution series of the compound, using the software Softmax Pro (Version 4.8, Molecular Devices).

chondrocytes = conditions: cited from earlier work
[1] = test system: micromass culture of mesenchymal cells; conditions: 30 μM in micromass culture; cited from earlier work

Sequence of recombinant human TGM2 (P21980 whole entry): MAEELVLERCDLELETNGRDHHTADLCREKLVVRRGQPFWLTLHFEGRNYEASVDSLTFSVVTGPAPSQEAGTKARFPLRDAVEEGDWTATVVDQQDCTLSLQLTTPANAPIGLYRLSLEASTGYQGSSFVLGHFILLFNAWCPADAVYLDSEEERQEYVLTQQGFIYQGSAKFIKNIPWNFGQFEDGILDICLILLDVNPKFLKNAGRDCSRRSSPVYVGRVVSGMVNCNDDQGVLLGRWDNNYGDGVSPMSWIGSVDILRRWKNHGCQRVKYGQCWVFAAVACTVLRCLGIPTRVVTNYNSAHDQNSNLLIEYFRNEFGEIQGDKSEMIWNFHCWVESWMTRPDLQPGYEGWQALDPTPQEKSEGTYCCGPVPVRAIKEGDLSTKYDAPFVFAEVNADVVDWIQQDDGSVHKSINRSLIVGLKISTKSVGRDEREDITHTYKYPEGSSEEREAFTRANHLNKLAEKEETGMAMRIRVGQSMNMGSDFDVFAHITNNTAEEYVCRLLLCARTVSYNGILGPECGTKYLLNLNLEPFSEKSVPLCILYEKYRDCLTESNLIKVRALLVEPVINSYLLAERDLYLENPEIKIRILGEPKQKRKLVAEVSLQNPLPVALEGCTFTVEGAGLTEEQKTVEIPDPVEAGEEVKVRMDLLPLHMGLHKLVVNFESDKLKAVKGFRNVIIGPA

SMILES | IC50 (recombinant human TGM2) [nM] | also measured
CC(NC(=O)n1sc2c(ccc[n+]2[O-])c1=O)c1ccc2c(c1)OCCO2 (centres unmarked) [Example 16] | 26000 | 
O=C(C1CC1)N1CCN(C(=O)n2sc3ncccc3c2=O)CC1 [Example 27] | 420 | 
N#Cc1ccc(N2CCN(C(=O)n3sc4ncccc4c3=O)CC2)cc1 [Example 6] | 1100 | 
O=C([C@@H]1CCCN1)N1CCN(C(=O)n2sc3c(ccc[n+]3[O-])c2=O)CC1 [Example 50] | 2300 | 
O=C(CCOc1ccccc1)N1CCN(C(=O)n2sc3c(ccc[n+]3[O-])c2=O)CC1 [Example 21] | 14 | 
CCS(=O)(=O)N1CCN(C(=O)n2sc3c(ccc[n+]3[O-])c2=O)CC1 [Example 38] | 61 | 
O=C(O)CN1CCN(C(=O)n2sc3ncccc3c2=O)CC1 [Example 8] | 18000 | 
O=C(O)CN1CCN(C(=O)n2sc3c(ccc[n+]3[O-])c2=O)CC1 [Example 10] | 12000 | 
NCCSSCCN [cystamine] |  | active TGFβ1 in chondrocytes (chondrocytes): decrease
O=C(N1CCC2(CCCN2)CC1)n1sc2c(ccc[n+]2[O-])c1=O [Example 45] | 4300 | 
CC(=O)N1CCN(C(=O)n2sc3ncccc3c2=O)CC1 [Example 26] | 340 | 
CCS(=O)(=O)N1CCN(C(=O)n2sc3ncccc3c2=O)CC1 [Example 36] | 430 | 
O=C(C1CC1)N1CCN(C(=O)n2sc3c(ccc[n+]3[O-])c2=O)CC1 [Example 28] | 45 | 
CCNCC(=O)N1CCN(C(=O)n2sc3c(ccc[n+]3[O-])c2=O)CC1 [Example 55] | 2000 | 
O=C(CCOc1ccccc1)N1CCN(C(=O)n2sc3ncccc3c2=O)CC1 [Example 20] | 110 | 
NCC(=O)N1CCN(C(=O)n2sc3c(ccc[n+]3[O-])c2=O)CC1 [Example 44] | 120 | 
COc1ccc(CNC(=O)n2sc3c(ccc[n+]3[O-])c2=O)cc1OC [Example 24] | 370 | 
O=C(NC(Cc1c[nH]c2ccc(F)cc12)C(=O)NCC1CC(Br)=NO1)OCc1cnc2ccccc2c1 (centres unmarked) [ERW1069] |  | Xylt2 expression [1]: increase; proteoglycan deposition [1]: increase
O=C1CC[C@@H](C(=O)N2CCN(C(=O)n3sc4c(ccc[n+]4[O-])c3=O)CC2)N1 [Example 59] | 1000 | 
O=C(N1CCOCC1)n1sc2c(ccc[n+]2[O-])c1=O [Example 5] | 270 | 
CNC1CCN(C(=O)n2sc3c(ccc[n+]3[O-])c2=O)CC1 [Example 42] | 240 | 
CN1CCN(C2CCN(C(=O)n3sc4c(ccc[n+]4[O-])c3=O)CC2)CC1 [Example 40] | 340 | 
O=C(N1CCN(c2ccc(N3CCCC3)nn2)CC1)n1sc2c(ccc[n+]2[O-])c1=O [Example 46] | 140 | 
CC(C)C(=O)N1CCN(C(=O)n2sc3c(ccc[n+]3[O-])c2=O)CC1 [Example 29] | 62 | 

More lines, main results first:

IC50 (recombinant human TGM2) [nM] | SMILES | also measured
2900 | C[C@@H]1CN(C(=O)n2sc3c(ccc[n+]3[O-])c2=O)C[C@H](C)O1 [Example 81] | 
750 | COCCC(=O)N1CCN(C(=O)n2sc3c(ccc[n+]3[O-])c2=O)CC1 [Example 83] | 
54 | COc1ccc(C(=O)N2CCN(C(=O)n3sc4c(ccc[n+]4[O-])c3=O)CC2)cc1OC [Example 69] | 
2100 | O=C(N1CCC(O)CC1)n1sc2c(ccc[n+]2[O-])c1=O [Example 86] | 
62 | CC(=O)N1CCN(C(=O)n2sc3c(ccc[n+]3[O-])c2=O)CC1 [Example 70] | 
120 | CCCC(=O)C1CCN(C(=O)n2sc3c(ccc[n+]3[O-])c2=O)CC1 [Example 78] | 
72 | O=C(c1ccccn1)N1CCN(C(=O)n2sc3c(ccc[n+]3[O-])c2=O)CC1 [Example 89] | 
150 | O=C1CN(C(=O)n2sc3c(ccc[n+]3[O-])c2=O)CCN1 [Example 80] | 
1200 | O=C(N1CCNCC1)n1sc2c(ccc[n+]2[O-])c1=O [Example 72] | 
130 | O=C(c1ccncc1)N1CCN(C(=O)n2sc3c(ccc[n+]3[O-])c2=O)CC1 [Example 74] | 
65 | COc1ccc(C(=O)N2CCN(C(=O)n3sc4ncccc4c3=O)CC2)cc1OC [Example 68] | 
1700 | NC(=O)N1CCN(C(=O)n2sc3c(ccc[n+]3[O-])c2=O)CC1 [Example 84] | 
3100 | O=C1NCCN1C1CCN(C(=O)n2sc3c(ccc[n+]3[O-])c2=O)CC1 [Example 62] | 
